Measured values reported in patent US20060205669A1, “G-type peptides and other agents to ameliorate atherosclerosis and other pathologies” (The Regents of the University of California, priority 2004, published 2006).
“Also recorded” adds a separate entry of the source.

Tests used:
[1] = tested on: mice; details: injection into mice; cited from earlier work
[2] = tested on: human LDL; details: human LDL treated in vitro; cited from earlier work
[3] = tested on: human volunteers; details: infusion into humans; cited from earlier work
[4] = tested on: ApoE null mice; test: HDL and pre-beta HDL from apoE null mice fed solution-phase (fragment) synthesized D-4F: inhibition of LDL-induced monocyte chemotaxis; type: in vivo; details: apoE null mice fed 5 micrograms solution-phase/fragment-synthesized D-4F, bled at 12 hours; FIG. 15
Description: ApoE null mice were fed 5 micrograms of the D-4F synthesized as described above (Frgmnt) or the mice were given the same amount of mouse chow without D-4F (Chow). Twelve hours after the feeding was started, the mice were bled and their plasma was fractionated on FPLC.

[5] = tested on: LDL receptor null mice; test: HDL protective capacity in LDL receptor null mice given peptide in drinking water; type: in vivo; details: 0.25 or 0.5 mg per ml drinking water, 24 or 48 hrs, mouse HDL at 100 μg cholesterol/ml, FIG. 3
Method: D-4F designated as F, or the apoJ peptide made from D amino acids (D-J336, designated as J) was added to the drinking water of LDL receptor null mice (4 per group) at 0.25 or 0.5 mg per ml of drinking water. After 24- or 48-hrs blood was collected from the mice and their HDL was isolated and tested for its ability to protect against LDL-induced monocyte chemotactic activity. Assay controls included culture wells that received no lipoproteins (no addition), or control human LDL alone (designated as LDL, 200 μg cholesterol/ml), or control LDL+control human HDL (designated as +HDL, 350 μg HDL cholesterol). For testing the mouse HDL, the control LDL was added together with mouse HDL (+F HDL or +J HDL) to artery wall cell cultures. The mouse HDL was added at 100 μg cholesterol/ml respectively.

[6] = tested on: ApoE null mice; test: Protection against LDL-induced monocyte chemotactic activity by HDL from apo E null mice given oral peptides; type: in vivo; details: peptide in drinking water (D-4F 5-50, D-J336 20-50 μg per ml), 24 hrs, murine HDL at 100 μg cholesterol/ml, FIG. 4
Method: FIG. 4 illustrates the effect of oral apoA-1 peptide mimetic and apoJ peptide on HDL protective capacity. ApoE null mice (4 per group) were provided with D-4F (designated as F) at 50, 30, 20, 10, 5 μg per ml of drinking water or apoJ peptide (designated as J) at 50, 30 or 20 μg per ml of drinking water. After 24 hrs blood was collected, plasma fractionated by FPLC and fractions containing LDL (designated as mLDL for murine LDL) and fractions containing HDL (designated as mHDL) were separately pooled and HDL protective capacity against LDL oxidation as determined by LDL-induced monocyte chemotactic activity was determined. For the assay controls the culture wells received no lipoproteins (no additions), mLDL alone (at 200 μg cholesterol/ml), or mLDL+standard normal human HDL (designated as Cont. h HDL, at 350 μg HDL cholesterol/ml).
For testing the murine HDL, mLDL together with murine HDL (+F mHDL or +J mHDL) were added to artery wall cell cultures. […] The murine HDL was used at 100 μg cholesterol/ml.

[7] = tested on: Obese Zucker Rats; test: Balloon injury of the common carotid artery, intimal media ratio; type: in vivo; details: 5 mg/kg/daily injected for 1 week before injury, sacrificed two weeks later, FIG. 13
Method: FIG. 13 illustrates the effect of D4F on balloon injury of the carotid artery. Sixteen week old Obese Zucker Rats were injected with D-4F (5 mg/kg/daily) for 1 week at which time they underwent balloon injury of the common carotid artery. Two weeks later the rats were sacrificed and the intimal media ratio determined.
Sixteen week old Obese Zucker Rats were injected with D-4F (5 mg/kg/daily) for 1 week at which time they underwent balloon injury of the common carotid artery. Two weeks later the rats were sacrificed and the intimal media ratio determined.

[8] = tested on: ApoE null mice; test: Trabecular bone mineral density in apoE null mice; type: in vivo; details: drinking water, 6 weeks
[9] = tested on: Obese Zucker Rats; test: Plasma glucose and lipid hydroperoxides (LOOH) in Obese Zucker Rats; type: in vivo; details: Obese Zucker Rats 26 weeks, 5.0 mg/kg/day intraperitoneal, 10 days; FIG. 12
Method: Obese Zucker Rats 26 weeks of age were bled and then treated with daily intraperitoneal injections of D-4F (5.0 mg/kg/day). After 10 days the rats were bled again plasma glucose and lipid hydroperoxides (LOOH) were determined. *p=0.027; ** p=0.0017.

[10] = tested on: mice fed an atherogenic diet; details: 20 μg daily injected; cited from earlier work

apo A-I: the major protein of HDL, apolipoprotein A-I
LDL isolated after injection: oxidation by human artery wall cells and induction of monocyte chemotactic activity [1]: resistant to oxidation by human artery wall cells and did not induce monocyte chemotactic activity
removal of seeding molecules (including HPODE and HPETE) from LDL [2]: removed seeding molecules from the LDL
LDL isolated after infusion: oxidation by human artery wall cells and induction of monocyte chemotactic activity [3]: resistant to oxidation by human artery wall cells and did not induce monocyte chemotactic activity

Ac-D-W-F-K-A-F-Y-D-K-V-A-E-K-F-K-E-A-F-NH2 (Ac-DWFKAFYDKVAEKFKEAF-NH2; also: D-amino acids, places not given here) [Peptide D-4F, apoA-I mimetic class A amphipathic helical peptide]
biological activity: producing HDL and pre-beta HDL that inhibit LDL-induced monocyte chemotaxis [4]: biologically active in mice; also recorded: very biologically active
HDL protective capacity against LDL-induced monocyte chemotactic activity [5]: as active as 350 μg/ml of control human HDL
HDL protective capacity against LDL oxidation (LDL-induced monocyte chemotactic activity) [6]: as active as 350 μg/ml of normal human HDL
restenosis (intimal media ratio) after balloon injury of the common carotid artery [7]: reduced
trabecular bone mineral density [8]: dramatically increased
symptoms of diabetes (plasma glucose) [9]: effective in mitigating symptoms of diabetes

Ac-D-W-L-K-A-F-Y-D-K-V-F-E-K-F-K-E-F-F-NH2 (Ac-DWLKAFYDKVFEKFKEFF-NH2) [Peptide 5F]
LDL from PBS-injected mice compared with LDL from peptide-injected mice: oxidation and induction of monocyte chemotactic activity [10]: more readily oxidized and more readily induced monocyte chemotactic activity
